Results reported in ChEMBL document CHEMBL2029202, “Towards a KCC2 blocker pharmacophore model” (Bioorg Med Chem Lett, 2012).

target: T1, Solute carrier family 12 member 5 (Rattus norvegicus, UniProt Q63633); experiment: Inhibition of rat KCC2 expressed in human Sk-Hep cells assessed as […] off Rb+ flux by atomic absorption spectroscopic analysis; format: cell-based
T1 sequence (Q63633 whole entry): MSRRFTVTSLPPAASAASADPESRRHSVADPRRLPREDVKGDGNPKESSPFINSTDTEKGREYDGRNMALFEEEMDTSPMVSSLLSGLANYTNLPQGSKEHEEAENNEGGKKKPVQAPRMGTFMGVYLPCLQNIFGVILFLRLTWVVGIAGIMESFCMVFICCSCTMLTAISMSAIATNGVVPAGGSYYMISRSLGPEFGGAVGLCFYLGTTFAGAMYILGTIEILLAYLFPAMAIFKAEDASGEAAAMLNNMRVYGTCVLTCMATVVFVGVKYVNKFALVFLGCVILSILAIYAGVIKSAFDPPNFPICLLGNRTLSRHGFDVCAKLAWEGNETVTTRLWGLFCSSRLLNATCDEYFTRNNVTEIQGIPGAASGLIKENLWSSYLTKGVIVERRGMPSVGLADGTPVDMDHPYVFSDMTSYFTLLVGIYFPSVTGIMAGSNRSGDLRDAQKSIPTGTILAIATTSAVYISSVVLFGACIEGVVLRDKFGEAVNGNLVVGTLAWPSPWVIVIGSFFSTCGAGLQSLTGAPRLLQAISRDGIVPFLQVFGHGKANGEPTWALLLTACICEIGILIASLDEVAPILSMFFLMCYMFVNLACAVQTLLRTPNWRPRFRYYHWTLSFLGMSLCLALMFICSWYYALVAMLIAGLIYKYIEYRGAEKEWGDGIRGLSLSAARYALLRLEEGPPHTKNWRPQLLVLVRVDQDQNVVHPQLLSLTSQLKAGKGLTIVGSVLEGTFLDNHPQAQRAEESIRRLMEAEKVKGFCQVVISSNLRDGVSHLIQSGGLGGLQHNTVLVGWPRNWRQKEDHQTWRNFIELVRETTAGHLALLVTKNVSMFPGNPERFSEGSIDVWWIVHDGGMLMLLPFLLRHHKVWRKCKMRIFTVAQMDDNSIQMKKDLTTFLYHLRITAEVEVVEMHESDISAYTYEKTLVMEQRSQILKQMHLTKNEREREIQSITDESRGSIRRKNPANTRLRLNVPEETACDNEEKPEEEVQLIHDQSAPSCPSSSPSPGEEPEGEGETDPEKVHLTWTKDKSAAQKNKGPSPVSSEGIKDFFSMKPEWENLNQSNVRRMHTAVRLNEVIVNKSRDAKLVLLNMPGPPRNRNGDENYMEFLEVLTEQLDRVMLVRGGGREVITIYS

Row | Compound | IC50 [nM]
1 | CC(=O)N1c2ccccc2CC1(Cc1ccccc1)C(=O)OCc1ccccc1 (racemic) | 200
2 | CC(=O)N1CCCC1(COCc1ccccc1)Cc1ccccc1 (racemic) | 20000
3 | CC(=O)N1CCCC1(Cc1ccccc1)C(=O)CCc1ccccc1 (racemic) | 300
4 | CC(=O)N1CCC[C@@]1(Cc1ccccc1)C(=O)OCc1ccccc1 | 300
5 | CC(=O)N1CCCC1(Cc1ccccc1)C1=N[C@H](c2ccccc2)CO1 (mixture of isomers) | 1300
6 | CC(=O)N1CCCC1(Cc1ccccc1)c1nc(-c2ccccc2)co1 (racemic) | 12600
7 | CC(=O)N1CCC[C@]1(Cc1ccccc1)C(=O)OCc1ccccc1 | 50000
8 | O=C1CCCC2CCC(Cc3ccccc3)(C(=O)OCc3ccccc3)N12 (racemic) | 1000

Continued by falling IC50, values first:

Row | IC50 [nM] | Compound
9 | 4000 | O=C(c1cc2ccccc2oc1=O)N1CCN(Cc2ccccc2)CC1
10 | 800 | CC(=O)N1CCCC1(Cc1ccccc1)C(=O)OCc1ccccc1 (racemic)
11 | 600 | O=C(c1cc2cc(Br)ccc2oc1=O)N1CCN(Cc2ccccc2)CC1
12 | 200 | CC(=O)N1CCCC1(Cc1ccc(F)cc1)C(=O)CCc1ccc(F)cc1 (racemic)
